Laboratory results as given in ChEMBL document CHEMBL5370585, “Exploration and Biological Evaluation of 1,3-Diamino-7H-pyrrol[3,2-f]quinazoline Derivatives as Dihydrofolate Reductase Inhibitors” (J Med Chem, 2023).
Values after ≈ are worked out from the molar mass of the structure shown. Active and inactive are the calls of the source. No cut-off for these calls is given here.

How the values were obtained:
Escherichia coli [1] = assay: Antibacterial activity against Escherichia coli ATCC 25922 incubated for 16 to 18 hrs by CLSI based broth dilution method; format: functional; conditions: time 16-18 hrs
[2] = Stability in mouse plasma assessed as parent compound remaining at 5 ug/ml measured after 120 mins by LC-MS/MS analysis; format: ADME, cell-free; conditions: at 5 µg/mL, read-out: Stability
Staphylococcus aureus [3] = assay: Antibacterial activity against Staphylococcus aureus ATCC 29213 incubated for 16 to 18 hrs by CLSI based broth dilution method; format: functional; conditions: time 16-18 hrs
[4] = Stability in mouse plasma assessed as parent compound remaining at 1 ug/ml measured after 10 mins by LC-MS/MS analysis; format: ADME, cell-free; conditions: at 1 µg/mL, read-out: Stability
Escherichia coli [5] = assay: Antibacterial activity against Escherichia coli ATCC 25922 incubated for 16 to 18 hrs in absence of human plasma by CLSI based broth dilution method; format: functional; conditions: time 16-18 hrs
[6] = Metabolic stability in mouse liver microsomes assessed as intrinsic clearance at 1 uM measured upto 60 mins in presence of NADPH by LC-MS/MS analysis; format: ADME, Microsome; conditions: read-out: CLH
[7] = Stability in mouse plasma assessed as parent compound remaining at 1 ug/ml measured after 45 mins by LC-MS/MS analysis; format: ADME, cell-free; conditions: at 1 µg/mL, read-out: Stability
Staphylococcus aureus [8] = assay: Antibacterial activity against Methicillin-resistant Staphylococcus aureus ATCC 43300 infected in ICR mouse thigh infection model assessed as survival rate at 7.5 mg/kg, ip measured after 24 hrs post-treatment relative to control; format: functional
[9] = Stability in mouse plasma assessed as parent compound remaining at 1 ug/ml measured after 1440 mins by LC-MS/MS analysis; format: ADME, cell-free; conditions: at 1 µg/mL, read-out: Stability
[10] = Toxicity in ip dosed ICR mouse assessed as animal death at high dose measured upto 8 days; format: organism-based; conditions: in vivo, 192 h, time < 8 day
[11] = Stability in mouse plasma assessed as parent compound remaining at 5 ug/ml measured after 20 mins by LC-MS/MS analysis; format: ADME, cell-free; conditions: at 5 µg/mL, read-out: Stability
[12] = Toxicity in ICR mouse assessed as median lethal dose administered as single IP dose measured upto 8 days; conditions: in vivo, time < 8 day
Enterococcus faecalis = assay: Antibacterial activity against Enterococcus faecalis ATCC 29212 incubated for 16 to 18 hrs by CLSI based broth dilution method; format: functional; conditions: time 16-18 hrs
[13] = Stability in mouse plasma assessed as parent compound remaining at 1 ug/ml measured after 20 mins by LC-MS/MS analysis; format: ADME, cell-free; conditions: at 1 µg/mL, read-out: Stability
Escherichia coli [14] = assay: Antibacterial activity against Escherichia coli ATCC 25922 assessed as inhibition of bacterial growth at upto 8 times MIC measured upto 28 hrs by time kill curve assay; format: functional, organism-based
Staphylococcus aureus [15] = assay: Antibacterial activity against Methicillin-resistant Staphylococcus aureus ATCC 43300 infected in ICR mouse thigh infection model assessed as survival rate at 15 mg/kg, ip measured after 24 hrs post-treatment relative to control; format: functional
[16] = AUC (0 to t) in ICR mouse at 10 mg/kg, ip measured after 5 to 24 hrs post administration by LC-MS/MS analysis; format: ADME, organism-based; design: time 5-24 hrs, dose 10 mg/kg, route ip; conditions: in vivo
Acinetobacter baumannii = assay: Antibacterial activity against Acinetobacter baumannii ATCC 19606 incubated for 16 to 18 hrs by CLSI based broth dilution method; format: functional; conditions: time 16-18 hrs
Staphylococcus aureus [17] = assay: Antibacterial activity against methicillin-resistant Staphylococcus aureus ATCC 43300 assessed as inhibition of bacterial growth at upto 8 times MIC measured upto 28 hrs by time kill curve assay; format: functional, organism-based
Escherichia coli [18] = assay: Antibacterial activity against Escherichia coli ATCC 25922 incubated for 16 to 18 hrs in presence of human plasma by CLSI based broth dilution method; format: functional; conditions: time 16-18 hrs
[19] = system: Staphylococcus epidermidis; assay: Antibacterial activity against Staphylococcus epidermidis ATCC 12228 incubated for 16 to 18 hrs by CLSI based broth dilution method; format: functional; conditions: time 16-18 hrs
MCF7 = assay: Cytotoxicity against human MCF7 cells measured after 72 hrs by MTT assay; format: functional, cell-based; conditions: MCF7, 72 h
Staphylococcus aureus [20] = assay: Antibacterial activity against methicillin-resistant Staphylococcus aureus ATCC 43300 incubated for 16 to 18 hrs in absence of human plasma by CLSI based broth dilution method; format: functional; conditions: time 16-18 hrs
HCT-116 = assay: Cytotoxicity against human HCT-116 cells measured after 72 hrs by MTT assay; format: functional, cell-based; conditions: HCT-116, 72 h
Staphylococcus aureus [21] = assay: Antibacterial activity against Staphylococcus aureus ATCC 29213 incubated for 16 to 18 hrs in absence of human plasma by CLSI based broth dilution method; format: functional; conditions: time 16-18 hrs
[22] = Half life in ICR mouse at 10 mg/kg, ip measured after 5 to 24 hrs post administration by LC-MS/MS analysis; format: ADME, organism-based; conditions: in vivo, time 5-24 hrs
[23] = Metabolic stability in mouse liver microsomes assessed as half life at 1 uM measured upto 60 mins in presence of NADPH by LC-MS/MS analysis; format: ADME, Microsome
[24] = Stability in mouse plasma assessed as parent compound remaining at 5 ug/ml measured after 240 mins by LC-MS/MS analysis; format: ADME, cell-free; conditions: at 5 µg/mL, read-out: Stability
HepG2 = assay: Cytotoxicity against human HepG2 cells measured after 72 hrs by MTT assay; format: functional, cell-based; conditions: HepG2, 72 h
Staphylococcus aureus [25] = assay: Antibacterial activity against Staphylococcus aureus ATCC 29213 incubated for 16 to 18 hrs in presence of human plasma by CLSI based broth dilution method; format: functional; conditions: time 16-18 hrs
[26] = Stability in mouse plasma assessed as parent compound remaining at 5 ug/ml measured after 60 mins by LC-MS/MS analysis; format: ADME, cell-free; conditions: at 5 µg/mL, read-out: Stability
Staphylococcus aureus [27] = assay: Antibacterial activity against methicillin-resistant Staphylococcus aureus ATCC 43300 incubated for 16 to 18 hrs in presence of human plasma by CLSI based broth dilution method; format: functional; conditions: time 16-18 hrs
Staphylococcus aureus [28] = assay: Antibacterial activity against Methicillin-resistant Staphylococcus aureus ATCC 43300 infected in ip dosed ICR mouse thigh infection model assessed as reduction in bacterial growth measured after 24 hrs post-treatment; format: functional, organism-based; conditions: dose lower 7.5 mg/kg, dose upper […]
Staphylococcus aureus [29] = assay: Drug resistance against methicillin-resistant Staphylococcus aureus ATCC 43300 assessed as increase in MIC measured after 10 passaging for 24 hrs; format: functional, organism-based
HGC-27 = assay: Cytotoxicity against human HGC-27 cells measured after 72 hrs by MTT assay; format: functional, cell-based; conditions: HGC-27, 72 h
[30] = Metabolic stability in mouse liver microsomes assessed as hepatic clearance at 1 uM measured upto 60 mins in presence of NADPH by LC-MS/MS analysis; format: ADME, Microsome; conditions: 1 h
[31] = AUC (0 to infinity) in ICR mouse at 10 mg/kg, ip measured after 5 to 24 hrs post administration by LC-MS/MS analysis; format: ADME, organism-based; design: time upper 24 hrs, dose 10 mg/kg, time lower 5 hrs, route ip; conditions: in vivo
[32] = Stability in mouse plasma assessed as parent compound remaining at 5 ug/ml measured after 30 mins by LC-MS/MS analysis; format: ADME, cell-free; conditions: at 5 µg/mL, read-out: Stability
[33] = Stability in mouse plasma assessed as parent compound remaining at 5 ug/ml measured after 45 mins by LC-MS/MS analysis; format: ADME, cell-free; conditions: at 5 µg/mL, read-out: Stability
[34] = Stability in mouse plasma assessed as parent compound remaining at 5 ug/ml measured after 1440 mins by LC-MS/MS analysis; format: ADME, cell-free; conditions: at 5 µg/mL, read-out: Stability
Staphylococcus aureus [35] = assay: Antibacterial activity against methicillin-resistant Staphylococcus aureus ATCC 43300 incubated for 16 to 18 hrs by CLSI based broth dilution method; format: functional; conditions: time 16-18 hrs
[36] = Stability in mouse plasma assessed as parent compound remaining at 1 ug/ml measured after 60 mins by LC-MS/MS analysis; format: ADME, cell-free; conditions: at 1 µg/mL, read-out: Stability
[37] = Stability in mouse plasma assessed as parent compound remaining at 1 ug/ml measured after 30 mins by LC-MS/MS analysis; format: ADME, cell-free; conditions: at 1 µg/mL, read-out: Stability
[38] = Stability in mouse plasma assessed as parent compound remaining at 1 ug/ml measured after 120 mins by LC-MS/MS analysis; format: ADME, cell-free; conditions: at 1 µg/mL, read-out: Stability
[39] = Stability in mouse plasma assessed as parent compound remaining at 5 ug/ml measured after 10 mins by LC-MS/MS analysis; format: ADME, cell-free; conditions: at 5 µg/mL, read-out: Stability
[40] = Stability in mouse plasma assessed as parent compound remaining at 1 ug/ml measured after 240 mins by LC-MS/MS analysis; format: ADME, cell-free; conditions: at 1 µg/mL, read-out: Stability

## Nc1nc(N)c2c(ccc3c2ccn3Cc2ccc3scnc3c2)n1
Escherichia coli [1]
  MIC: 0.06 mg/L (≈ 0.173 µM)
[2]
  remaining at 2 h, 5 ug/ml: 95.5%
Staphylococcus aureus [3]
  MIC: 0.125 mg/L (≈ 0.361 µM)
[4]
  remaining at 10 min, 1 ug/ml: 96.2%
Escherichia coli [5]
  MIC: 0.06 mg/L (≈ 0.173 µM)
[6]
  microsomal CLint at 1 µM: 114 µL/min/mg
[7]
  remaining at 0.75 h, 1 ug/ml: 93.1%
Staphylococcus aureus [8]
  survival at 7.5 mg/kg: 50%
[9]
  remaining at 24 h, 1 ug/ml: 92.3%
[10]
  Activity: Toxic
[11]
  remaining at 20 min, 5 ug/ml: 96%
[12]
  LD50 at 192 h: 283 mg/kg
Enterococcus faecalis
  MIC: 0.03 mg/L (≈ 0.0866 µM)
[13]
  remaining at 20 min, 1 ug/ml: 94.7%
Escherichia coli [14]
  Activity: Active
Staphylococcus aureus [15]
  survival at 15 mg/kg: 66%
[16]
  AUCt: 2.28012 µg·h/mL
Acinetobacter baumannii
  MIC: 1 mg/L (≈ 2.89 µM)
Staphylococcus aureus [17]
  Activity: Active
Escherichia coli [18]
  MIC: 0.125 mg/L
[19]
  MIC: ≤ 0.004 mg/L
MCF7
  IC50: 0.58 µM
Staphylococcus aureus [20]
  MIC: 0.016 mg/L (≈ 0.0462 µM)
HCT-116
  IC50: 0.005 µM
Staphylococcus aureus [21]
  MIC: 0.03 mg/L (≈ 0.0866 µM)
[22]
  half-life: 2.82 h
[23]
  half-life at 1 µM: 0.203 h
[24]
  remaining at 4 h, 5 ug/ml: 95.2%
HepG2
  IC50: 0.12 µM
Staphylococcus aureus [25]
  MIC: 0.5 mg/L
[26]
  remaining at 1 h, 5 ug/ml: 95.4%
Staphylococcus aureus [27]
  MIC: 0.5 mg/L
Staphylococcus aureus [28]
  Activity: Active
Staphylococcus aureus [29]
  Activity: Active
HGC-27
  IC50: 0.001 µM
[30]
  CLH: 4.49 L/h/kg
[31]
  AUC: 0.3676 µg·h/mL
[32]
  remaining at 0.5 h, 5 ug/ml: 95.8%
[33]
  remaining at 0.75 h, 5 ug/ml: 95.2%
[34]
  remaining at 24 h, 5 ug/ml: 95.5%
Staphylococcus aureus [35]
  MIC: 0.016 mg/L (≈ 0.0462 µM)
[36]
  remaining at 1 h, 1 ug/ml: 92.4%
[37]
  remaining at 0.5 h, 1 ug/ml: 93.8%
[38]
  remaining at 2 h, 1 ug/ml: 92.5%
[39]
  remaining at 10 min, 5 ug/ml: 96.7%
[40]
  remaining at 4 h, 1 ug/ml: 92.6%
